Assays:
[1] = (§1) AUC in Swiss Webster mouse at 0.3 mg/kg, po administered as cassette dosing; format: ADME, organism-based, Plasma; parameters: dose 0.3 mg/kg, route oral; settings: Swiss Webster, plasma
Mus musculus [2] = assay: (§2) Cmax in Swiss Webster mouse at 0.3 mg/kg, po administered as cassette dosing; format: ADME, organism-based; parameters: dose 0.3 mg/kg, route oral; settings: in vivo
[3] = (§3) Half life in Swiss Webster mouse at 0.3 mg/kg, po administered as cassette dosing; format: ADME, organism-based; parameters: dose 0.3 mg/kg, route oral; settings: Swiss Webster, in vivo
[4] = Lipophilicity, log P of the compound by shake-flask method; format: physicochemical; settings: octanol/water
[5] = as §2; format: ADME, organism-based; parameters: dose 0.3 mg/kg, route oral; settings: Swiss Webster, in vivo
in vivo [6] = settings: Swiss Webster, mouse, po, 0.3 mg/kg
Mus musculus [7] = assay: as §1; format: ADME, organism-based, Plasma; parameters: dose 0.3 mg/kg, route oral; settings: in vivo
Mus musculus [8] = assay: as §3; format: ADME, organism-based; parameters: dose 0.3 mg/kg, route oral; settings: in vivo
[9] = AUC in Sprague-Dawley rat at 0.3 mg/kg, po administered as cassette dosing; format: ADME, organism-based; parameters: dose 0.3 mg/kg, route oral; settings: plasma
[10] = Cmax in Sprague-Dawley rat at 0.3 mg/kg, po administered as cassette dosing; format: ADME, organism-based; parameters: dose 0.3 mg/kg, route oral; settings: in vivo
[11] = Half life in Sprague-Dawley rat at 0.3 mg/kg, po administered as cassette dosing; format: ADME, organism-based; parameters: dose 0.3 mg/kg, route oral; settings: in vivo
in vivo [12] = settings: Sprague-Dawley, rat, po, 0.3 mg/kg

In the case of `CS(=O)(=O)N1CCC(NC(=O)Nc2ccc(OC(F)(F)F)cc2)CC1`, the AUC [1] is reported as 5.3 µM·h, the Cmax (Mus musculus [2]) is reported as 370 nM and the half-life [3] is reported as 15 h.
In the case of `CC(=O)N1CCC(NC(=O)Nc2ccc(C(F)(F)F)cc2)CC1`, the logP [4] is reported as 2.74.
Compound `CS(=O)(=O)N1CCC(NC(=O)Nc2ccc(C(F)(F)F)cc2)CC1` has an AUC [1] of 4.67 µM·h, a Cmax [5] of 130 nM and a half-life [3] of 22 h. It also gave a logP [4] of 2.94 and a Tmax (in vivo [6]) of 8 h.
With `CC(C)S(=O)(=O)N1CCC(NC(=O)Nc2ccc(C(F)(F)F)cc2)CC1` the logP [4] was 3.39.
`CCC(C)C(=O)N1CCC(NC(=O)N[C@H]2CC[C@H](CC)CC2)CC1` (stereo partly drawn) showed an AUC (Mus musculus [7]) of 0.037 µM·h, a Cmax [5] of 5 nM and a t1/2 (Mus musculus [8]) of 12 h.
`CC(C)C(=O)N1CCC(NC(=O)Nc2ccc(C(F)(F)F)cc2)CC1` gave an AUC [1] of 19.7 µM·h, a Cmax [5] of 1160 nM and a half-life [3] of 6 h. The AUC [9] was 7.3 µM·h, the Cmax [10] was 510 nM and the half-life [11] was 5.4 h. It also gave a Tmax (in vivo [6]) of 4 h and a Tmax (in vivo [12]) of 4 h.
Compound `O=C(Nc1ccc(C(F)(F)F)cc1)NC1CCN(C(=O)C2CC2)CC1` has an AUC [1] of 24.6 µM·h, a Cmax [5] of 960 nM and a half-life [3] of 17 h. For the same compound, the logP [4] was 3.18 and the Tmax (in vivo [6]) was 6 h.
Compound `CCC(C)C(=O)N1CCC(NC(=O)Nc2ccc(C(F)(F)F)cc2)CC1` (stereo not drawn) has an AUC [1] of 3.29 µM·h, a Cmax [5] of 320 nM and a half-life [3] of 6 h. The logP [4] was 3.83 and the Tmax (in vivo [6]) was 0.5 h.
With `CC[C@H](C)C(=O)N1CCC(NC(=O)Nc2ccc(C(F)(F)F)cc2)CC1` the AUC [1] was 4.94 µM·h, the Cmax [5] was 435 nM and the half-life [3] was 5 h. It also gave an AUC [9] of 5.72 µM·h, a Cmax [10] of 790 nM and a half-life [11] of 4.9 h. The logP [4] was 3.84, the Tmax (in vivo [6]) was 1 h and the Tmax (in vivo [12]) was 1 h.
`CC(C)CC(=O)N1CCC(NC(=O)Nc2ccc(C(F)(F)F)cc2)CC1` gave a logP [4] of 3.86.
Compound `O=C(Nc1ccc(C(F)(F)F)cc1)NC1CCN(C(=O)CC(F)(F)F)CC1` has an AUC [1] of 8.85 µM·h, a Cmax [5] of 330 nM and a half-life [3] of 15.4 h. The logP [4] was 3.99 and the Tmax (in vivo [6]) was 8 h.
Compound `O=C(Nc1ccc(C(F)(F)F)cc1)NC1CCN(C(=O)CCC(F)(F)F)CC1` has a logP [4] of 3.66.
In the case of `CCC(C)C(=O)N1CCC(NC(=O)Nc2ccc(C(C)C)cc2)CC1` (stereo not drawn), the AUC [1] is reported as 0.2 µM·h, the Cmax [5] is reported as 90 nM and the logP [4] is reported as 4.21. The Tmax (in vivo [6]) was 0.5 h.
Compound `CCC(C)C(=O)N1CCC(NC(=O)Nc2ccc(C(C)(C)C)cc2)CC1` (stereo not drawn) has a logP [4] of 5.12.
In the case of `CCC(C)C(=O)N1CCC(NC(=O)Nc2ccc(C(F)(C(F)(F)F)C(F)(F)F)cc2)CC1` (stereo not drawn), the AUC [1] is reported as 1.6 µM·h, the Cmax [5] is reported as 135 nM and the half-life [3] is reported as 4.5 h. The logP [4] was 4.96 and the Tmax (in vivo [6]) was 2.5 h.
`CCC(C)C(=O)N1CCC(NC(=O)Nc2ccc(OC(F)(F)F)cc2)CC1` (stereo not drawn) showed an AUC [1] of 3.3 µM·h, a Cmax [5] of 235 nM and a half-life [3] of 6 h. The logP [4] was 3.98 and the Tmax (in vivo [6]) was 2 h.
With `CCC(C)C(=O)N1CCC(NC(=O)NC2CCCCCC2)CC1` (stereo not drawn) the AUC [1] was 0.075 µM·h, the Cmax [5] was 3 nM and the half-life [3] was 8.4 h. For the same compound, the Tmax (in vivo [6]) was 0.5 h.
Work on `CC(C)C(=O)N1CCC(NC(=O)Nc2ccc(OC(F)(F)F)cc2)CC1` yielded an AUC [1] of 19.5 µM·h, a Cmax [5] of 900 nM and a half-life [3] of 9 h. The AUC [9] was 12 µM·h, the Cmax [10] was 890 nM and the half-life [11] was 3.5 h. It also gave a Tmax (in vivo [6]) of 5 h and a Tmax (in vivo [12]) of 1 h.
In the case of `CC[C@H](C)C(=O)N1CCC(NC(=O)Nc2ccc(OC(F)(F)F)cc2)CC1`, the AUC [1] is reported as 2.53 µM·h, the Cmax [5] is reported as 195 nM and the half-life [3] is reported as 7.7 h. For the same compound, the AUC [9] was 2.59 µM·h, the Cmax [10] was 297 nM and the half-life [11] was 4.2 h. It also gave a logP [4] of 3.97, a Tmax (in vivo [6]) of 4 h and a Tmax (in vivo [12]) of 4 h.
`O=C(Nc1ccc(C(F)(C(F)(F)F)C(F)(F)F)cc1)NC1CCN(C(=O)CC(F)(F)F)CC1` showed an AUC [1] of 9.6 µM·h, a Cmax [5] of 365 nM and a half-life [3] of 18.9 h. For the same compound, the logP [4] was 4.89 and the Tmax (in vivo [6]) was 8 h.
For `CCS(=O)(=O)N1CCC(NC(=O)Nc2ccc(C(F)(F)F)cc2)CC1`, the logP [4] was 3.08.
For `CCCS(=O)(=O)N1CCC(NC(=O)Nc2ccc(C(F)(F)F)cc2)CC1`, the logP [4] was 3.39.
In the case of `O=C(Nc1ccc(C(F)(F)F)cc1)NC1CCN(S(=O)(=O)C2CC2)CC1`, the logP [4] is reported as 3.39.
Work on `O=C(Nc1ccc(C(F)(F)F)cc1)NC1CCN(S(=O)(=O)CC(F)(F)F)CC1` yielded an AUC [1] of 4.27 µM·h, a Cmax [5] of 100 nM and a half-life [3] of 25 h. It also gave a logP [4] of 3.42 and a Tmax (in vivo [6]) of 8 h.
For `CCCCS(=O)(=O)N1CCC(NC(=O)Nc2ccc(C(F)(F)F)cc2)CC1`, the AUC [1] was 0.245 µM·h, the Cmax [5] was 30 nM and the half-life [3] was 7.4 h. It also gave a logP [4] of 3.95 and a Tmax (in vivo [6]) of 1 h.
In the case of `CCCCS(=O)(=O)N1CCC(NC(=O)Nc2ccc(OC(F)(F)F)cc2)CC1`, the AUC [1] is reported as 0.22 µM·h, the Cmax [5] is reported as 65 nM and the half-life [3] is reported as 2 h. It also gave a logP [4] of 4.13 and a Tmax (in vivo [6]) of 1.2 h.
Compound `CC(=O)N1CCC(NC(=O)NC23CC4CC(CC(C4)C2)C3)CC1` [AR9281] has an AUC [1] of 0.183 µM·h and a Cmax [5] of 30 nM.

Reference: ChEMBL document CHEMBL3351722, “Optimized inhibitors of soluble epoxide hydrolase improve in vitro target residence time and in vivo efficacy” (J Med Chem, 2014)
